Data as given in article PMC12622905, “CYP71D8 and CYP82A2 catalyze the last committed step in biosynthesis of glyceollin isomers in soybean” (Plant Biotechnology, 2025).

Legend:
CYP71D145 = target: T1, CYP71D145 (Glycine max, UniProt A0A0R0HDK6); test: HPLC of glyceollin I formation, recombinant yeast microsomes; assay type: biochemical; settings: NADPH; potassium phosphate pH 7.5; 30°C, 5 h
T1 construct: gene GLYMA_11G062500; full ORF in pYES2.1 TOPO; recombinant yeast BJ2168 microsomes with Lotus japonicus CPR
T1 sequence (A0A0R0HDK6 1-505): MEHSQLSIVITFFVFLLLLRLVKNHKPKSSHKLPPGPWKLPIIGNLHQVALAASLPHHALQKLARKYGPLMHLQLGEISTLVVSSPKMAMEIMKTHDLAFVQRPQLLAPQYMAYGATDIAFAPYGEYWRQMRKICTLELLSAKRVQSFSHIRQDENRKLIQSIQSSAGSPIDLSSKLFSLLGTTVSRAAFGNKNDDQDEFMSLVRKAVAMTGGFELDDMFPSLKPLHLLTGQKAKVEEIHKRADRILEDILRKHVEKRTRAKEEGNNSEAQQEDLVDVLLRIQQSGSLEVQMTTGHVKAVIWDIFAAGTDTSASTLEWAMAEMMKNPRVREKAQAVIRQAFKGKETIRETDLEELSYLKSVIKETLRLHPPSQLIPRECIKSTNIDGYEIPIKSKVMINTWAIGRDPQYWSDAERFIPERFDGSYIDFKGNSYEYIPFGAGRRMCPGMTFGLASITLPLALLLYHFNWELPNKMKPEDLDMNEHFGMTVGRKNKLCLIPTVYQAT

CYP71D106 = target: T2, CYP71D106 (Glycine max, UniProt K7K4H7); test: as above; assay type: biochemical; settings: NADPH; potassium phosphate pH 7.5; 30°C, 5 h
T2 construct: gene LOC100817439; synthetic gene in pYES2 (BamHI site); recombinant yeast BJ2168 microsomes with Lotus japonicus CPR
T2 sequence (K7K4H7 1-503): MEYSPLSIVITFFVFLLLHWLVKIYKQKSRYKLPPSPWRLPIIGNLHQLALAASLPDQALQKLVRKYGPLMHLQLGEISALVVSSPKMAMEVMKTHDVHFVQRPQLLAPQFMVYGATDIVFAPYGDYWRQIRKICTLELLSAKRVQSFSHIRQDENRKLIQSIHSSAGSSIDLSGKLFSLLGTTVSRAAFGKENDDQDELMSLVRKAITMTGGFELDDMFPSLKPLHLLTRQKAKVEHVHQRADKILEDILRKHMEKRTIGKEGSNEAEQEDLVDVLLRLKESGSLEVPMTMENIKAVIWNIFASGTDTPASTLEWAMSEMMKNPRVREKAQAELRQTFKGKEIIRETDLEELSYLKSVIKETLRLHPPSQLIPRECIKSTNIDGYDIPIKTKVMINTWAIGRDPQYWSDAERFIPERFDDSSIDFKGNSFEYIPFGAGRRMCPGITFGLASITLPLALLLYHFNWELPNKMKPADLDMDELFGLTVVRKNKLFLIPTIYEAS

CYP82A24 = target: T3, CYP82A24 (Glycine max, UniProt I1MI36); test: HPLC of glyceollin III formation, recombinant yeast microsomes; assay type: biochemical; settings: NADPH; potassium phosphate pH 7.5; 30°C
T3 construct: gene LOC100782866; synthetic gene in pYES2 (BamHI site); recombinant yeast BJ2168 microsomes with Lotus japonicus CPR
T3 sequence (I1MI36 1-521): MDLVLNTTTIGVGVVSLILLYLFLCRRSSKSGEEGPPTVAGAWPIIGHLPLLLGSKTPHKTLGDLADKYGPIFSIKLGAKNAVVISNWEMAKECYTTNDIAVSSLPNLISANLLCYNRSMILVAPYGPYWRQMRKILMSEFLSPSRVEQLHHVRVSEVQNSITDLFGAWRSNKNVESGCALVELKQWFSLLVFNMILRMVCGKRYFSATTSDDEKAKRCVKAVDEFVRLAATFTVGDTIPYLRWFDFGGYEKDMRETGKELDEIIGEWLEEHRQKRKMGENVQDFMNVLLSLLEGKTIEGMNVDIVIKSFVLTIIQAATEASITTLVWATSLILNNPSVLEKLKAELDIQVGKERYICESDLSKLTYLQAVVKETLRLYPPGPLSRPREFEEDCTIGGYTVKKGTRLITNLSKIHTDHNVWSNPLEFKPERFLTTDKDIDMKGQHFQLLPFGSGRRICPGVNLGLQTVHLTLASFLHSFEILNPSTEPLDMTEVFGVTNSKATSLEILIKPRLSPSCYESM

[1] = substrate: CC(C)=CCc1c(O)ccc2c1OC[C@@]1(O)c3ccc(O)cc3O[C@@H]21; test: HPLC of glyceollin I formation, recombinant yeast microsomes, Michaelis-Menten fit; assay type: biochemical, Glycine max; settings: 2 mM NADPH, 0.1 M potassium phosphate pH 7.5, 10% sucrose, 14 mM 2-mercaptoethanol, 30°C, 20 min
[2] = substrate: CC(C)=CCc1cc2c(cc1O)OC[C@@]1(O)c3ccc(O)cc3O[C@@H]21; test: HPLC of glyceollin III formation, recombinant yeast microsomes, Michaelis-Menten fit; assay type: biochemical, Glycine max; settings: 2 mM NADPH, 0.1 M potassium phosphate pH 7.5, 10% sucrose, 14 mM 2-mercaptoethanol, 30°C, 20 min

## CC(C)=CCc1c(O)ccc2c1OC[C@@]1(O)c3ccc(O)cc3O[C@@H]21 [4DG, 4-dimethylallylglycinol]
CYP71D145
  HPLC of glyceollin I formation, recombinant yeast microsomes: CYP71D145 produced only glyceollin I in the enzyme assay
CYP71D106
  HPLC of glyceollin I formation, recombinant yeast microsomes: CYP71D106 yielded glyceollin I and two other unknown compounds (P1 and P2)

## CC(C)=CCc1cc2c(cc1O)OC[C@@]1(O)c3ccc(O)cc3O[C@@H]21 [2DG, 2-dimethylallylglycinol]
CYP82A24
  HPLC of glyceollin III formation, recombinant yeast microsomes: CYP82A24 also exhibited GS3 activity with 2-dimethylallylglycinol

B1: CYP71D8 (GS1, glyceollin I synthase) (Glycine max) (protein)
chain: MEYSPLSIVITFFVFLLLHWLVKTYKQKSSHKLPPGPWRLPIIGNLHQLALAASLPDQALQKLVRKYGPLMHLQLGEISTLVVSSPKMAMEMMKTHDVHFVQRPQLLAPQFMVYGATDIAFAPYGDYWRQIRKICTLELLSAKRVQSFSHIRQDENKKLIQSIHSSAGSPIDLSGKLFSLLGTTVSRAAFGKENDDQDEFMSLVRKAITMTGGFEVDDMFPSLKPLHLLTRQKAKVEHVHQRADKILEDILRKHMEKRTRVKEGNGSEAEQEDLVDVLLRLKESGSLEVPMTMENIKAVIWNIFAAGTDTSASTLEWAMSEMMKNPKVKEKAQAELRQIFKGKEIIRETDLEELSYLKSVIKETLRLHPPSQLIPRECIISTNIDGYEIPIKTKVMINTWAIGRDPQYWSDADRFIPERFNDSSIDFKGNSFEYIPFGAGRRMCPGMTFGLASITLPLALLLYHFNWELPNKMKPEDLDMDEHFGMTVARKNKLFLIPTVYEAS
notes: full ORF in pYES2.1 TOPO; yeast BJ2168 microsomes co-expressing Lotus japonicus CPR
[1]
  Km: 1.3 ± 0.2 µM

B2: CYP82A2 (GS3, glyceollin III synthase) (Glycine max) (protein)
chain: MELVLNSTTIGVGVVSLILLLYLFLRGGSWKSGEEGPPTVAGAWPIIGHLPLLLGSKTPHKTLGDLADKYGPIFSIKIGAKNAVVVSNWEMAKECYTTNDIAVSSLPDLISANLLCYNRSMIVVAPYGPYWRQLRKILMSEFLSPSRVEQLHHVRVSEVQSSITELFRDWRSNKNVQSGFATVELKQWFSLLVFNMILRMVCGKRYFSASTSDDEKANRCVKAVDEFVRLAATFTVGDAIPYLRWFDFGGYENDMRETGKELDEIIGEWLDEHRQKRKMGENVQDLMSVLLSLLEGKTIEGMNVDIVIKSFVLTVIQAGTEASITTLIWATSLILNNPSVLEKLKAELDIQVGKERYICESDLSKLTYLQAVVKETLRLYPPAPLSRPREFEEDCTIGGYTVKKGTRLITNLSKIHTDHNVWSNPLEFKPERFLTTDKDIDMKGQHFQLLPFGGGRRICPGINLGLQTVRLTLASFLHSFEILNPSTEPLDMTEVFRATNTKATPLEILIKPRLSPSCYESI
notes: as for B1
[2]
  Km: 9.5 ± 1.0 µM
